Assay results: article PMC11345330, “Structural, Biochemical, and Phylogenetic Analysis of Bacterial and Fungal Carbohydrate Esterase Family 15 Glucuronoyl Esterases in the Rumen” (The Protein Journal, 2024)

Target: T1, FsCE15 (Fibrobacter succinogenes, UniProt C9RKY6)
T1 construct: gene FSU_2898; codon-optimised synthetic gene, His6 tag (C-terminal for crystals)
Experiment: continuous coupled uronic acid assay (Megazyme K-Uronic)
Format: biochemical
Details: pH 7.0, 3-component buffer, 2 mM substrate

T1 sequence (C9RKY6 entry or part of it): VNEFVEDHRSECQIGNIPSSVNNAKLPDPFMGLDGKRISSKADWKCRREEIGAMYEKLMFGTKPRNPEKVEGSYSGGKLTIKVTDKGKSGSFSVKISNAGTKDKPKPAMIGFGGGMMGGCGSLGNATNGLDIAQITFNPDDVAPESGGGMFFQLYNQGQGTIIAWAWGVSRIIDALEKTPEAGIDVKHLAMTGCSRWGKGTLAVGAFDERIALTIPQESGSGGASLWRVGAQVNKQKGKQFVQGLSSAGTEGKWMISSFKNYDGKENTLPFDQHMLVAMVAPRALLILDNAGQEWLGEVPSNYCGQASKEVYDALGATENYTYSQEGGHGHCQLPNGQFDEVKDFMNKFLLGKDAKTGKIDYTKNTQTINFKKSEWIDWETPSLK

C=CCOC(=O)[C@H]1OC(O)[C@H](O)[C@@H](O)[C@@H]1O (stereo partly drawn) [Allyl D-glucuronate]
continuous coupled uronic acid assay (Megazyme K-Uronic): All of the enzymes cleaved AllylGlcA
